Measured values: PubChem BioAssay (NCI)
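Values below derive from 48-hour exposures of cells grown in 96-well plates, with endpoints linearly interpolated between the two concentrations bracketing the appropriate inhibition level. TGI: concentration producing complete growth inhibition.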

What was measured:
Test in all cases: NCI-60 cell line screen, 48 h
A498 renal = test system: A498 renal
CAKI-1 renal = test system: CAKI-1 renal
CCRF-CEM leukemia = test system: CCRF-CEM leukemia
DU-145 prostate = test system: DU-145 prostate
HCC-2998 colon = test system: HCC-2998 colon
HOP-92 NSCLC = test system: HOP-92 NSCLC
HT29 colon = test system: HT29 colon
K-562 leukemia = test system: K-562 leukemia
M14 melanoma = test system: M14 melanoma
NCI-H226 lung = test system: NCI-H226 lung
OVCAR-3 ovarian = test system: OVCAR-3 ovarian
OVCAR-5 ovarian = test system: OVCAR-5 ovarian
RXF 393 renal = test system: RXF 393 renal
SF-295 CNS = test system: SF-295 CNS
SF-539 CNS = test system: SF-539 CNS
SW-620 colon = test system: SW-620 colon
U251 CNS = test system: U251 CNS
UACC-257 melanoma = test system: UACC-257 melanoma

| SMILES | TGI (A498 renal) | TGI (CAKI-1 renal) | TGI (CCRF-CEM leukemia) | TGI (DU-145 prostate) | TGI (HCC-2998 colon) | TGI (HOP-92 NSCLC) | TGI (HT29 colon) | TGI (K-562 leukemia) | TGI (M14 melanoma) | TGI (NCI-H226 lung) | TGI (OVCAR-3 ovarian) | TGI (OVCAR-5 ovarian) | TGI (RXF 393 renal) | TGI (SF-295 CNS) | TGI (SF-539 CNS) | TGI (SW-620 colon) | TGI (U251 CNS) | TGI (UACC-257 melanoma) |
| --- | --- | --- | --- | --- | --- | --- | --- | --- | --- | --- | --- | --- | --- | --- | --- | --- | --- | --- |
| CCN(CC)CCSc1nc2c(c(=N)n1-c1ccccc1)c(=S)n(-c1ccccc1)c(=S)n2-c1ccccc1 | 22.2 µM | 2.94 µM | 0.446 µM | 3.05 µM | 3.15 µM | 2.88 µM | 3.37 µM | 2.5 µM | 5 µM | 50.4 µM | 3.07 µM | 29 µM | 2.78 µM | 30.1 µM | 9.57 µM | > 21.4 µM | 6.4 µM | 3.15 µM |
| COc1cc(/C=C/C(=O)N[C@@H]2C(=O)N3[C@@H]2SC(C)(C)[C@@H]3C(=O)O)cc(OC)c1OC | > 100 µM | > 100 µM | > 100 µM | > 100 µM | > 100 µM | > 100 µM | > 100 µM | > 100 µM | > 100 µM | > 100 µM | > 100 µM | > 100 µM | > 100 µM | > 100 µM | > 100 µM | > 100 µM | > 100 µM | > 100 µM |
| COC1(OC)C2(Cl)C(Cl)=C(Cl)C1(Cl)C1COCC12 (stereo not drawn) | > 100 µM | > 100 µM | > 100 µM | > 100 µM | > 100 µM | > 100 µM | > 100 µM | > 100 µM | > 100 µM | > 100 µM | > 100 µM | > 100 µM | > 100 µM | > 100 µM | > 100 µM | > 100 µM | > 75 µM | > 100 µM |
| O=C(/C=C/c1cccs1)c1cccc(C(=O)/C=C/c2cccs2)n1 | > 100 µM | > 100 µM | 8.51 µM | > 100 µM | > 100 µM | > 100 µM | > 34.1 µM | > 100 µM | > 100 µM | > 100 µM | > 100 µM | > 100 µM | > 86.9 µM | > 100 µM | 21.5 µM | 15.6 µM | > 75.8 µM | > 100 µM |
| NCCCc1c(-c2ccccc2)nc(N)[nH]c1=O | > 100 µM | > 100 µM | > 100 µM | > 100 µM | > 100 µM | > 100 µM | > 100 µM | > 100 µM | > 100 µM | > 100 µM | > 100 µM | > 100 µM | > 100 µM | > 100 µM | > 100 µM | > 100 µM | > 100 µM | > 100 µM |
| Cc1ccc(O)c(-c2csc(NCN3CCN(CNc4nc(-c5cc(C)ccc5O)cs4)CC3)n2)c1 | > 100 µM | > 100 µM | > 100 µM | > 100 µM | > 100 µM | > 100 µM | > 100 µM | > 100 µM | > 100 µM | > 100 µM | > 100 µM | > 100 µM | > 100 µM | > 100 µM | > 100 µM | > 100 µM | > 100 µM | > 100 µM |
| CCOP(=O)(OCC)/C(C#N)=C/c1cccn1N(C)C | > 100 µM | > 100 µM | > 100 µM | > 100 µM | > 100 µM | > 100 µM | > 100 µM | > 100 µM | > 100 µM | > 100 µM | > 100 µM | > 100 µM | > 100 µM | > 100 µM | > 100 µM | > 100 µM | > 100 µM | > 100 µM |
| COc1cc2c(cc1OC)C(Cc1ccccc1CCCl)=NCC2 | > 100 µM | > 100 µM | > 100 µM | > 100 µM | > 100 µM | > 100 µM | > 100 µM | > 100 µM | > 100 µM | > 100 µM | > 100 µM | > 100 µM | > 100 µM | > 100 µM | 48.6 µM | > 100 µM | > 100 µM | > 100 µM |
| O=c1[nH]c2ccc(CC(=S)N3CCN(c4ccccc4)CC3)cc2o1 | > 100 µM | > 100 µM | > 100 µM | > 100 µM | > 100 µM | > 100 µM | > 100 µM | > 100 µM | > 100 µM | > 100 µM | > 100 µM | > 100 µM | > 100 µM | > 100 µM | > 100 µM | > 100 µM | > 100 µM | > 100 µM |
| O=C(CCc1ccccc1CO)NCCc1ccccc1 | > 100 µM | > 100 µM | > 100 µM | > 100 µM | > 100 µM | > 100 µM | > 100 µM | > 100 µM | > 100 µM | > 100 µM | > 100 µM | > 100 µM | > 100 µM | > 100 µM | > 100 µM | > 100 µM | > 100 µM | > 100 µM |
| Cc1ccc2cccc3c2c1CC1(C3=O)S(=O)(=O)OCCOS1(=O)=O | > 100 µM | > 100 µM | > 100 µM | > 100 µM | > 100 µM | > 100 µM | > 100 µM | > 100 µM | > 100 µM | > 100 µM | > 100 µM | > 100 µM | > 100 µM | > 100 µM | > 100 µM | > 100 µM | > 100 µM | > 100 µM |
